What was measured:
[1] = biological target: Angiotensin II, AT2 (Homo sapiens, UniProt P50052); experiment: Table 12 panel: Angiotensin II, AT2; details: 1.0E−6, average N=2, read-out: percentage inhibition of specific binding
Text: (§1) The percentage inhibition (average; N=2) for these receptors is shown below in Table 12.
(§2) Values in Table 12 are expressed as percentage inhibition of specific binding, and these values represent the average of replicate tubes at each of the concentrations tested.

[2] = biological target: Calcium Channel, Type N (Homo sapiens, UniProt Q00975); experiment: Table 12 panel: Calcium Channel, Type N; details: 1.0E−6, average N=2, read-out: percentage inhibition of specific binding
Text: as §1, §2

[3] = tested on: Muscarinic, Non-selective, Peripheral; experiment: Table 12 panel: Muscarinic, Peripheral; type: binding; details: 1.0E−6, average N=2
Text: as §1, §2

[4] = tested on: Adrenergic, Beta, Non-selective; experiment: Table 12 panel: Adrenergic, Beta; type: binding; details: 1.0E−6, average N=2
Text: as §1, §2

[5] = tested on: Potassium Channel, ATP-Sensitive; experiment: Table 12 panel: Potassium Channel, ATP-Sensitive; type: binding; details: 1.0E−6, average N=2
Text: as §1, §2

[6] = tested on: Dopamine, Non-selective; experiment: Table 12 panel: Dopamine, Non-selective; type: binding; details: 1.0E−6, average N=2
Text: as §1, §2

[7] = tested on: Adenosine, Non-selective; experiment: Table 12 panel: Adenosine, Non-selective; type: binding; details: 1.0E−6, average N=2
Text: as §1, §2

[8] = tested on: Glutamic Acid Decarboxylase; experiment: Table 12 panel: Glutamic Acid Decarboxylase; type: biochemical; details: 1.0E−6, average N=2
Text: as §1, §2

[9] = tested on: Corticotropin Releasing Factor, Non-selective; experiment: Table 12 panel: CRF; type: binding; details: 1.0E−6, average N=2
Text: as §1, §2

[10] = biological target: Nitric Oxide, NOS (Neuronal-Binding) (Homo sapiens, UniProt P29475); experiment: Table 12 panel: NOS; details: 1.0E−6, average N=2, read-out: percentage inhibition of specific binding
Text: as §1, §2

[11] = biological target: Histamine, H3 (Homo sapiens, UniProt Q9Y5N1); experiment: biochemical; details: read-out: percentage inhibition of specific binding
[12] = biological target: T1, CYP 2C9 (Homo sapiens, UniProt P11712); experiment: Cytochrome P450 inhibition: CYP 2C9; type: in vitro ADME; details: human microsomal preparation
T1 construct: in a commercially available human microsomal preparation; purchased; host or cells: human microsomal preparation
Experimental: (§3) Cytochrome P450 inhibition was studied with HY2901 in vitro. […] In addition, the in vitro rate of metabolism in rat, dog, monkey, and human hepatocyte cultures was determined for HY2901.

[13] = tested on: Crl: CD(SD)IGS BR rats; experiment: Acute rat study (toxicity and MTD, oral gavage, 5 days); type: in vivo
Experimental: The purpose of this study was to evaluate the toxicity and maximum tolerated dose (MTD) of the test articles when given via oral gavage to rats. Male Crl: CD®(SD)IGS BR rats (3/group) were assigned to 5 groups. At initiation of dosing, animals were approximately 7 weeks old with body weights ranging from 172 to 206 g. Each group received either 50, 100, 150, 200, or 250 mg/kg of HY2901 once daily for 5 days. All surviving animals were sacrificed on Day 6. Assessment of toxicity was based on mortality, clinical observations, and body weight data.

[14] = tested on: Beagles; experiment: 14-day dog study with recovery phase; type: in vivo
Experimental: (§4) The toxicity and the toxicokinetics of HY2901 when administered daily via oral gavage (Phase 1) or capsules (Phase 2) to dogs for at least 14 days was determined. The reversibility, persistence, or delayed occurrence of observable effects following a 7-day (Phase 1) or 14-day (Phase 2) recovery period was also assessed. Doses of 3, 10, 30, and 70 mg/kg/day were studied.

[15] = 14-day dog study with recovery phase; type: in vivo; details: Beagle, dog, in vivo
Experimental: as §4

[16] = biological target: T2, CYP 1A2 (Homo sapiens, UniProt P05177); experiment: Cytochrome P450 inhibition, human microsomal preparation: CYP 1A2; type: in vitro ADME
T2 construct: in a commercially available human microsomal preparation; purchased; host or cells: human microsomal preparation
Experimental: as §3

[17] = Urinary excretion in animal species; type: in vivo; details: animal species administered HY2901
[18] = biological target: T3, CYP 2C19 (Homo sapiens, UniProt P33261); experiment: Cytochrome P450 inhibition: CYP 2C19; type: in vitro ADME; details: human microsomal preparation
T3 construct: in a commercially available human microsomal preparation; purchased; host or cells: human microsomal preparation
Experimental: as §3

[19] = 14-day rat study with recovery; type: in vivo; details: both sexes, Crl:CD(SD)IGS BR, rat, in vivo, po
Experimental: (§5) The purpose of this study was to evaluate the toxicity of HY2901 when administered via oral gavage to rats for at least 14 days and to assess the reversibility, persistence, or delayed occurrence of any effects after a recovery period of up to 14 days.
(§6) Male and female Crl:CD®(SD)IGS BR rats were assigned to seven groups, four main study groups and three groups for toxicokinetics. Each group received dose preparations containing 0.25% methylcellulose, 400 cps in 200 mM acetate buffer, or 10, 30, or 150 mg of test article/kg of body weight (mg/kg/day) at a dose volume of 5 mL/kg.
(§7) Assessment of toxicity was based on mortality, clinical and ophthalmic observations, body weights, food consumption, clinical pathology, organ weights, and macroscopic and microscopic findings. Blood samples were collected for toxicokinetic evaluation.

[20] = tested on: Crl:CD(SD)IGS BR rats; experiment: 14-day rat study with recovery; type: in vivo
Experimental: as §5, §6, §7

[21] = 50 to 250 mg/kg once daily for 5 days

T1 sequence (P11712 whole entry): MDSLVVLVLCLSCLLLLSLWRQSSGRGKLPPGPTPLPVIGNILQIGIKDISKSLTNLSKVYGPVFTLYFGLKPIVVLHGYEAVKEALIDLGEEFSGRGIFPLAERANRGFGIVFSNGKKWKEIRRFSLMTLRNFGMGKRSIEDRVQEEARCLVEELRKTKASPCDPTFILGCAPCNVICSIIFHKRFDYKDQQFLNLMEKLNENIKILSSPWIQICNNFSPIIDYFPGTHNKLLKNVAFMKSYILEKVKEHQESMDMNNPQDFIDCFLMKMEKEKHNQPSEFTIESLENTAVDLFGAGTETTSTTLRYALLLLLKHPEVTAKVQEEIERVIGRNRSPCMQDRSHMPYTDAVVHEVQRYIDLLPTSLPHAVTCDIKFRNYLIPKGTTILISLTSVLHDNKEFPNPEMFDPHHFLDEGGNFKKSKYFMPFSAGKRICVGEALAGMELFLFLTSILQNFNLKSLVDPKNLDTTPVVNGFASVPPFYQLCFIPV
Chain of Angiotensin II, AT2 (P50052 whole entry): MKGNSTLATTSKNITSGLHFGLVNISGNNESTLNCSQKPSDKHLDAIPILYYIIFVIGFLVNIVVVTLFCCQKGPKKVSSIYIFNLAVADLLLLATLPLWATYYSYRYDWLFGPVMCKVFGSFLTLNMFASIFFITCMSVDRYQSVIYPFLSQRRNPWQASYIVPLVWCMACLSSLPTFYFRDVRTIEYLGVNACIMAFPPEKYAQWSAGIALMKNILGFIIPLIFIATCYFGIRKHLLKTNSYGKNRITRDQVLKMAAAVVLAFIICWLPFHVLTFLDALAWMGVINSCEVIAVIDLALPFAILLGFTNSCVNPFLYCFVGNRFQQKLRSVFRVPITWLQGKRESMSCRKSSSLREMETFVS
T2 sequence (P05177 whole entry): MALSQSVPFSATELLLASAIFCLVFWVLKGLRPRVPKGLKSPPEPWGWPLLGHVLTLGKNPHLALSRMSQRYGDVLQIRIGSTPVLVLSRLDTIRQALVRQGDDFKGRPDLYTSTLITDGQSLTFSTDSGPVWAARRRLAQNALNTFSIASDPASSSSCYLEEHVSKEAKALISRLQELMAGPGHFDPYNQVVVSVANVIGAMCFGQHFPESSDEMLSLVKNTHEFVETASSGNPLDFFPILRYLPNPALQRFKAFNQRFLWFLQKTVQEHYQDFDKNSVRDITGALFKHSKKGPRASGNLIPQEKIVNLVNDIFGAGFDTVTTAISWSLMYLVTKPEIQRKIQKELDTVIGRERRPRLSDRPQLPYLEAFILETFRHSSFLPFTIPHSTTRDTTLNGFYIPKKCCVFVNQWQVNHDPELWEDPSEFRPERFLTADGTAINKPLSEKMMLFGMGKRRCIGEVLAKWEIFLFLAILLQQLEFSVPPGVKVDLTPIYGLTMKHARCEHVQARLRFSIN
Chain of Calcium Channel, Type N (Q00975 whole entry): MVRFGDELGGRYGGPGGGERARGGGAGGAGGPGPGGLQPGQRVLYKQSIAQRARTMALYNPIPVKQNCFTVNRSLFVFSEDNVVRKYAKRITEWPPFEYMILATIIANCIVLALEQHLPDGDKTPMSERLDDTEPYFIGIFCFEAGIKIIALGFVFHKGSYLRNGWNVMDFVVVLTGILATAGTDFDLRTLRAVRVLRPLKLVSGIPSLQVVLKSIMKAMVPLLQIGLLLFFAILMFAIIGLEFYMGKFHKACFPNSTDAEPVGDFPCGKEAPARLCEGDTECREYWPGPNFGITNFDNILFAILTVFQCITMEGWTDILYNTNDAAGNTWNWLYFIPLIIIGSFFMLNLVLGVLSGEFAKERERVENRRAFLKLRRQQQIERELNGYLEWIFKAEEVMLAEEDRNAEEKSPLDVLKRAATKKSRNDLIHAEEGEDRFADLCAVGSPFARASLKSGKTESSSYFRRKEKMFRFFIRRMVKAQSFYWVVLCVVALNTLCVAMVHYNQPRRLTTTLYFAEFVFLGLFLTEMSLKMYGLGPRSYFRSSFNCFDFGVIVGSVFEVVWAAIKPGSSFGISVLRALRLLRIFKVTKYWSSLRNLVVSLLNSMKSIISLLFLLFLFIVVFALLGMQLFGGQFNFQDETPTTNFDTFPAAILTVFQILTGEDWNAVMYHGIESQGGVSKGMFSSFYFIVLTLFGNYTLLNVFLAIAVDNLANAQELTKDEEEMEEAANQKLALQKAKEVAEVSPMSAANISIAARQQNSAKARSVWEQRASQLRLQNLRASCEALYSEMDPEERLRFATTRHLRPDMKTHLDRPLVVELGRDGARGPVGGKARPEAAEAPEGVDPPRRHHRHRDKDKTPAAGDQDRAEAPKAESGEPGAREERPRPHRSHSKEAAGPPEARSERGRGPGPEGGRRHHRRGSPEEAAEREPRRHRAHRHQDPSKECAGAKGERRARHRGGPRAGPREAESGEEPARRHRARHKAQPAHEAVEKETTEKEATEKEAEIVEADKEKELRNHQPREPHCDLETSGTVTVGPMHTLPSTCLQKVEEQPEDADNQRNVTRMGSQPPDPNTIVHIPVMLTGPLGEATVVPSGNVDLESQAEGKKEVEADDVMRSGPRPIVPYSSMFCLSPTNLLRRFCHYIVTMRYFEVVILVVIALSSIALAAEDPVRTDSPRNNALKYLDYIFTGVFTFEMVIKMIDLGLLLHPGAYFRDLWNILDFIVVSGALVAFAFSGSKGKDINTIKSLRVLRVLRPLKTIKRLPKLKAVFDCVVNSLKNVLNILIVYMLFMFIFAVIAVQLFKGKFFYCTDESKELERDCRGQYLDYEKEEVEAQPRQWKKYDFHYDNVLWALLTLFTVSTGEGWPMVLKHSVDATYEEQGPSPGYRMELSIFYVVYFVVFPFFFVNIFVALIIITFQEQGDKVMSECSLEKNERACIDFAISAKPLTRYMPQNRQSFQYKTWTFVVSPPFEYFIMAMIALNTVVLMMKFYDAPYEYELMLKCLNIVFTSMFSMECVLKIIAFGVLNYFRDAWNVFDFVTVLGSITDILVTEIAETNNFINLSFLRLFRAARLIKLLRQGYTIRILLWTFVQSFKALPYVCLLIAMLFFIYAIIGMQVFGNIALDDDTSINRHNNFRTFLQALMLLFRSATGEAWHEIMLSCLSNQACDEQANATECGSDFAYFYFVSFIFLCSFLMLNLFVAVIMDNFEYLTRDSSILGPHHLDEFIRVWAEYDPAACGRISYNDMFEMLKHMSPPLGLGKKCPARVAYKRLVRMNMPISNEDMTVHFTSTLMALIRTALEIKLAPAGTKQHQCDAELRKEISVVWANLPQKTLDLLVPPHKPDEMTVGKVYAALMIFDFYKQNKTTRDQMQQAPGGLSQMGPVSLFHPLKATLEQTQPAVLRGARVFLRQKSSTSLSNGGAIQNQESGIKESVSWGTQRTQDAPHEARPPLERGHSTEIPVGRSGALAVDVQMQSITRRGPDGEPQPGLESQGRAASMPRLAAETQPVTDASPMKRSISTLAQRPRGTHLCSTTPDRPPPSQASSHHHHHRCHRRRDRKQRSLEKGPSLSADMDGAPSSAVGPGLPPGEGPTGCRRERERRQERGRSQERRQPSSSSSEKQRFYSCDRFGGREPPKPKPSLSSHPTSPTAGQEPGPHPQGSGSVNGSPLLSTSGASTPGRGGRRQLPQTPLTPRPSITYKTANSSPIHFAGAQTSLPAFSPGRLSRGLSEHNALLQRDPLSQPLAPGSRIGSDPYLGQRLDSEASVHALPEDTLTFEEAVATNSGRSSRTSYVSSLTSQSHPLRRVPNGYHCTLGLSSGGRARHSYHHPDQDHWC
T3 sequence (P33261 whole entry): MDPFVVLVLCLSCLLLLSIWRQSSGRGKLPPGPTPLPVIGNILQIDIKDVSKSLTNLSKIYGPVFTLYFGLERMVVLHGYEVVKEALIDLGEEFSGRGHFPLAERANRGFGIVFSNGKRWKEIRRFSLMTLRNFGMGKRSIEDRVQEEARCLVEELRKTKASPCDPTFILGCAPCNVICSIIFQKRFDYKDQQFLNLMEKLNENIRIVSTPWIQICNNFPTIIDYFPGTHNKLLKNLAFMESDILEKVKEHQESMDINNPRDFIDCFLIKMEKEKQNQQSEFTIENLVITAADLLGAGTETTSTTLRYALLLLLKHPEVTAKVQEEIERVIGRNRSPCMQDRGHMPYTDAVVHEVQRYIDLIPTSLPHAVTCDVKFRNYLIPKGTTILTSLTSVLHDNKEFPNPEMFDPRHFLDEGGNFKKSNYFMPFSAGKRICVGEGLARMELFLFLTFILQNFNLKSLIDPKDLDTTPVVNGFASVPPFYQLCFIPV
Chain of Histamine, H3 (Q9Y5N1 whole entry): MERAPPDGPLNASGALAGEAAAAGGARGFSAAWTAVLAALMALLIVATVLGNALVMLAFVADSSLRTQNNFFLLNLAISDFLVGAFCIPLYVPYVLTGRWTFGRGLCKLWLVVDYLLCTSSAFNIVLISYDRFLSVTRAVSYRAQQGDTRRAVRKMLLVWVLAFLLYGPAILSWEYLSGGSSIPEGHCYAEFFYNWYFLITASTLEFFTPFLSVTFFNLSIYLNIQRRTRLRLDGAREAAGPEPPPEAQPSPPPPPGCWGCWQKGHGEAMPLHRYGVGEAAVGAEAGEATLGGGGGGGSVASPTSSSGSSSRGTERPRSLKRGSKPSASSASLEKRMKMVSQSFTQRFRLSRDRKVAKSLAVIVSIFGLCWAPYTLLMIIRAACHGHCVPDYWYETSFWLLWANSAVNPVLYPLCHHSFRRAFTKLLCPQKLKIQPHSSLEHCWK

With `CC(CC(=O)O)N1CCC(=C2c3ccc(F)cc3COc3ccccc32)CC1` (centres unmarked) [Compound 37] the inhibition at 1 µM [1] was 1.51%, the inhibition at 1 µM [2] was 3.45% and the “percentage inhibition of specific binding” value [3] was 5.37%. For the same compound, the “percentage inhibition of specific binding” value [4] was 6.97%, the “percentage inhibition of specific binding” value [5] was 26.16% and the “percentage inhibition of specific binding” value [6] was 21.10%. The “percentage inhibition of specific binding” value [7] was 6.49%, the percentage inhibition [8] was −4.76% and the “percentage inhibition of specific binding” value [9] was 4.31%. The inhibition at 1 µM [10] was 17.2% and the inhibition at 1 µM [11] was 5.11%.
With `CC(C)(CN1CCC(=C2c3ccc(F)cc3COc3ccccc32)CC1)C(=O)O` [Compound 49a] the “inhibition of CYP 2C9 activity” value [12] was “did not inhibit”, the ataxia [13, 21] was “dose-response relationship was observed in the incidence and duration of ataxia” and the “hypoactivity / apparent sleep” value [13, 21] was “Hypoactivity was observed in all rats”. The “Day 6 body weights” value ([13]; two 250 mg/kg rats, relative to other rats) was “slightly decreased”, the clinical observations ([14]; 3 mg/kg/day Phase 1 dogs) was “no treatment-related clinical observations” and the “respiration rates, rectal body temperatures, body weights, food consumption, electrocardiograms, ophthalmic examinations” value ([14]; Phase 1 and 2) was “no changes”. For the same compound, the clinical observations ([14]; Phase 2 (capsules)) was “treatment-related head tremors, ataxia, hypoactivity, and excessive salivation”, the clinical laboratory data ([14]; dog, in vivo) was “no evidence in the clinical laboratory data of an effect” and the survival ([14]; dog, in vivo) was “survived until scheduled sacrifice”. For the same compound, the NOAEL at 14 days [15] was 70 mg/kg/day, the “inhibition of CYP 1A2 activity” value [16] was “did not inhibit” and the “unchanged drug and metabolites in urine” value [17] was “has been found in the urine”. The “inhibition of CYP 2C19 activity” value [18] was “did not inhibit”, the NOAEL at 14 days [19] was 30 mg/kg/day and the mean body weight ([20]; 150 mg/kg/day males) was “depression in mean body weight of the 150 mg/kg/day males”. The “mean weights of thymus, lung, and heart” value ([20]; 150 mg/kg/day males, terminal sacrifice) was “significantly low relative to brain weight”, the food consumption ([20]; 150 mg/kg/day, Week 1) was “depression in food consumption in 150 mg/kg/day rats in Week 1” and the “expected pharmacological effects (clinical signs)” value ([20]; 10, 30, or 150 mg/kg/day) was “hypoactivity, ataxia, and the appearance of sleep, were commonly observed”. The unscheduled deaths ([20]; 10, 30, or 150 mg/kg/day, 14 days) was “largely restricted to the 150 mg/kg/day groups”, the ophthalmic observations ([20]; all groups) was “No ophthalmic lesions” and the clinical pathology findings ([20]; rat, in vivo) was “unrelated to treatment”. For the same compound, the “increases in Cmax and AUC(0-t) with dose” value ([20]; rat, in vivo) was “greater than dose proportional”, the “accumulation after multiple dosing” value ([20]; rats) was “Minimum accumulation” and the “macroscopic and microscopic findings” value ([20]; terminal and recovery sacrifice rats) was “No treatment-related macroscopic observations or microscopic toxic effects”.
